Measured values: patent publication US12157746B2, “Tetrahydro-1H-pyrazino[2,1-a]isoindolylquinoline compounds for the treatment of autoimmune disease” (F. HOFFMANN-LA ROCHE AG, priority 2018, dated 2024)

Target: T1, human TLR7 (Homo sapiens, UniProt Q9NYK1)
T1 sequence (Q9NYK1 27-1049): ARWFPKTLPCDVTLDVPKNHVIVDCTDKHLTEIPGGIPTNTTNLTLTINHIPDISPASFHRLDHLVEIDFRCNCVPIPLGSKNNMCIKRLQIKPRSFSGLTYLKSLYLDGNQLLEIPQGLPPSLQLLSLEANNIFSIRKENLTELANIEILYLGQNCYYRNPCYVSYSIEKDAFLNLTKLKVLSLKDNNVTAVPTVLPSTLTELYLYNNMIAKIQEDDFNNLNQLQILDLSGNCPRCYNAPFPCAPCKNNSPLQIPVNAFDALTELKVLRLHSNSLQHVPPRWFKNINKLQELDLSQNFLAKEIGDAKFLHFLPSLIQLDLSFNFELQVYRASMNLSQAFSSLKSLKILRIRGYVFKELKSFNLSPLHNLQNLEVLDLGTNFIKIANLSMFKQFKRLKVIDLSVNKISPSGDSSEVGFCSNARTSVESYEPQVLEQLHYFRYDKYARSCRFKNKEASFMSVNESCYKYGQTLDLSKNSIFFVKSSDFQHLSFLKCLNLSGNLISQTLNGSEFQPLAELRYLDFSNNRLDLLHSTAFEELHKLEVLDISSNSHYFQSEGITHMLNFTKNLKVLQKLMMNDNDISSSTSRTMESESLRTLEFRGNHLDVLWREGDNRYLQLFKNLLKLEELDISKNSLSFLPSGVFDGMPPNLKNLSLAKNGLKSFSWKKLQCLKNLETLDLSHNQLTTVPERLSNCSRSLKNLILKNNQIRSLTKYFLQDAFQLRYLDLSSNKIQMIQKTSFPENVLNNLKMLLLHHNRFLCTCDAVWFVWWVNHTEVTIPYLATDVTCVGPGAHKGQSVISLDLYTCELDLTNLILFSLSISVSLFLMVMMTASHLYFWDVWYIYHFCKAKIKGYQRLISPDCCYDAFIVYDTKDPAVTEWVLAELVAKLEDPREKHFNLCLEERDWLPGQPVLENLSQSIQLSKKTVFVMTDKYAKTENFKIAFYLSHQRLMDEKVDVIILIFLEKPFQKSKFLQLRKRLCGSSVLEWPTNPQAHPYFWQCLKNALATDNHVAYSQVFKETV
Assay: HEK293-Blue-hTLR-7 cells assay
Type: cell-based
Conditions: HEK293-Blue-hTLR7 cells, R848 stimulation, 20 hrs, SEAP reporter; read-out: HEK/hTLR7 IC50
Description: HEK293-Blue-hTLR-7 Cells Assay:
A stable HEK293-Blue-hTLR-7 cell line was purchased from InvivoGen (Cat. #: hkb-htlr7, San Diego, California, USA). These cells were originally designed for studying the stimulation of human TLR7 by monitoring the activation of NF-κB. A SEAP (secreted embryonic alkaline phosphatase) reporter gene was placed under the control of the IFN-β minimal promoter fused to five NF-κB and AP-1-binding sites. The SEAP was induced by activating NF-κB and AP-1 via stimulating HEK-Blue hTLR7 cells with TLR7 ligands. Therefore the reporter expression was declined by TLR7 antagonist under the stimulation of a ligand, such as R848 (Resiquimod), for incubation of 20 hrs. The cell culture supernatant SEAP reporter activity was determined using QUANTI-Blue™ kit (Cat. #: rep-qb1, Invivogen, San Diego, Ca. USA) at a wavelength of 640 nm, a detection medium that turns purple or blue in the presence of alkaline phosphatase.
HEK293-Blue-hTLR7 cells were incubated at a density of 250,000˜450,000 cells/mL in a volume of 170 μL in a 96-well plate in Dulbecco's Modified Eagle's medium (DMEM) containing 4.5 g/L glucose, 50 U/mL penicillin, […], […], 2 mM L-glutamine, 10% (v/v) heat-inactivated fetal bovine serum with addition of 20 μL test compound 1n a serial dilution in the presence of final DMSO at 1% and 10 μL of 20 uM R848 in above DMEM, perform incubation under 37° C. in a CO2 incubator for 20 hrs. Then 20 μL of the supernatant from each well was incubated with 180 μL Quanti-blue substrate solution at 37° C. for 2 hrs and the absorbance was read at 620-655 nm using a spectrophotometer. The signaling pathway that TLR7 activation leads to downstream NF-κB activation has been widely accepted, and therefore similar reporter assay was modified for evaluating TLR7 antagonist.

IC50 [nM]	Structure (SMILES)
4	C[C@@H]1CN(c2ccc(C#N)c3ncccc23)C[C@@H]2c3ccc(N4CCOCC(N)C4)cc3CN12 (stereo partly drawn) [Example 54, 5-[(4R,10bS)-8-(6-amino-1,4-oxazepan-4-yl)-4-methyl-3,4,6,10b-tetrahydro-1H-pyrazino[2,1-a]isoindol-2-yl]quinoline-8-carbonitrile]
6.9	C[C@@H]1CN(c2ccc(C#N)c3ncccc23)C[C@@H]2c3ccc(NC4CNCCOC4)cc3CN12 (stereo partly drawn) [Example 56, 5-[(4R,10bS)-4-methyl-8-(1,4-oxazepan-6-ylamino)-3,4,6,10b-tetrahydro-1H-pyrazino[2,1-a]isoindol-2-yl]quinoline-8-carbonitrile]
26.4	C[C@@H]1CN(c2ccc(C#N)n3nccc23)C[C@@H]2c3ccc(N4CCOC[C@H](N)C4)cc3CN12 [Example 101, 4-[(4R,10bS)-8-[(6R)-6-amino-1,4-oxazepan-4-yl]-4-methyl-3,4,6,10b-tetrahydro-1H-pyrazino[2,1-a]isoindol-2-yl]pyrazolo[1,5-a]pyridine-7-carbonitrile]
32.6	C[C@@H]1CN(c2ccc(C#N)n3nccc23)C[C@@H]2c3ccc(N4CC[C@@H](N)C4)cc3CN12 [Example 96, 4-[(4R,10bS)-8-[(3R)-3-aminopyrrolidin-1-yl]-4-methyl-3,4,6,10b-tetrahydro-1H-pyrazino[2,1-a]isoindol-2-yl]pyrazolo[1,5-a]pyridine-7-carbonitrile]
11.4	C[C@@H]1CN(c2ccc(C#N)n3ncc(F)c23)C[C@@H]2c3ccc(N4C[C@H](N)[C@@](C)(O)C4)cc3CN12 [Example 112, 4-[(4R,10bS)-8-[(3S,4S)-4-amino-3-hydroxy-3-methyl-pyrrolidin-1-yl]-4-methyl-3,4,6,10b-tetrahydro-1H-pyrazino[2,1-a]isoindol-2-yl]-3-fluoro-pyrazolo[1,5-a]pyridine-7-carbonitrile]
3.4	C[C@@H]1CN(c2ccc(C#N)c3ncccc23)C[C@@H]2c3ccc(N4CCNC[C@H]4CO)cc3CN12 [Example 11, 5-[(4R,10S)-8-[(2S)-2-(hydroxymethyl)piperazin-1-yl]-4-methyl-3,4,6,10b-tetrahydro-1H-pyrazino[2,1-a]isoindol-2-yl]quinoline-8-carbonitrile]
< 3.2	CO[C@@H]1CN(c2ccc3c(c2)CN2C3CN(c3ccc(C#N)c4ncccc34)C[C@H]2C)C[C@@H]1N (relative stereo) [Example 17, 5-[(4R,10bS)-8-[cis-3-amino-4-methoxy-pyrrolidin-1-yl]-4-methyl-3,4,6,10b-tetrahydro-1H-pyrazino[2,1-a]isoindol-2-yl]quinoline-8-carbonitrile]
22.6	CO[C@H]1CCN(c2ccc3c(c2)CN2[C@H](C)CN(c4ccc(C#N)n5nccc45)C[C@H]32)C[C@H]1N [Example 106, 4-[(4R,10bS)-8-[(3R,4S)-3-amino-4-methoxy-1-piperidyl]-4-methyl-3,4,6,10b-tetrahydro-1H-pyrazino[2,1-a]isoindol-2-yl]pyrazolo[1,5-a]pyridine-7-carbonitrile]
20.8	CO[C@H]1CN(c2ccc3c(c2)CN2[C@H](C)CN(c4ccc(C#N)n5nccc45)C[C@H]32)C[C@@H]1N [Example 95, 4-[(4R,10bS)-8-[(3S,4S)-3-amino-4-methoxy-pyrrolidin-1-yl]-4-methyl-3,4,6,10b-tetrahydro-1H-pyrazino[2,1-a]isoindol-2-yl]pyrazolo[1,5-a]pyridine-7-carbonitrile]
3	C[C@@H]1CN(c2ccc(C#N)c3ncccc23)C[C@@H]2c3ccc(N4CC(C)(N)C4)cc3CN12 [Example 39, 5-[(4R,10bS)-8-(3-amino-3-methyl-azetidin-1-yl)-4-methyl-3,4,6,10b-tetrahydro-1H-pyrazino[2,1-a]isoindol-2-yl]quinoline-8-carbonitrile]
7	CN[C@H]1CN(c2ccc3c(c2)CN2[C@H](C)CN(c4ccc(C#N)c5ncccc45)C[C@H]32)C[C@@H]1OC [Example 23, 5-[(4R,10bS)-8-[(3S,4S)-3-methoxy-4-(methylamino)pyrrolidin-1-yl]-4-methyl-3,4,6,10b-tetrahydro-1H-pyrazino[2,1-a]isoindol-2-yl]quinoline-8-carbonitrile]
17.5	C[C@@H]1CN(c2ccc(C#N)n3nccc23)C[C@@H]2c3ccc(N4C[C@@H](N)[C@](C)(O)C4)cc3CN12 [Example 108, 4-[(4R,10bS)-8-[(3R,4R)-4-amino-3-hydroxy-3-methyl-pyrrolidin-1-yl]-4-methyl-3,4,6,10b-tetrahydro-1H-pyrazino[2,1-a]isoindol-2-yl]pyrazolo[1,5-a]pyridine-7-carbonitrile]
< 3.2	C[C@@H]1CN(c2ccc(C#N)c3ncccc23)C[C@@H]2c3cccc(N4CCNCC4)c3CN12 [Example 8, 5-[(4R,10bS)-4-methyl-7-piperazin-1-yl-3,4,6,10b-tetrahydro-1H-pyrazino[2,1-a]isoindol-2-yl]quinoline-8-carbonitrile]
5.3	CO[C@H]1CN(c2ccc3c(c2)CN2C3CN(c3ccc(C#N)c4ncccc34)C[C@H]2C)C[C@@H]1N (single isomer, unassigned) [Example 16A]
25.8	C[C@@H]1CN(c2ccc(C#N)n3nccc23)C[C@@H]2c3ccc(N4CC[C@@](C)(N)C4)cc3CN12 [Example 103, 4-[(4R,10bS)-8-[(3R)-3-amino-3-methyl-pyrrolidin-1-yl]-4-methyl-3,4,6,10b-tetrahydro-1H-pyrazino[2,1-a]isoindol-2-yl]pyrazolo[1,5-a]pyridine-7-carbonitrile]
15.6	C[C@@H]1CN(c2ccc(C#N)c3ncccc23)C[C@@H]2c3ccc(NC4CNC4)cc3CN12 [Example 28, 5-[(4R,10S)-8-(azetidin-3-ylamino)-4-methyl-3,4,6,10b-tetrahydro-1H-pyrazino[2,1-a]isoindol-2-yl]quinoline-8-carbonitrile]
3.5	C[C@@H]1CN(c2ccc(C#N)c3ncccc23)C[C@@H]2c3ccc(N[C@@H]4CNC[C@@H]4F)cc3CN12 [Example 32, 5-[(4R,10bS)-8-[[(3R,4S)-4-fluoropyrrolidin-3-yl]amino]-4-methyl-3,4,6,10b-tetrahydro-1H-pyrazino[2,1-a]isoindol-2-yl]quinoline-8-carbonitrile]
4.3	C[C@@H]1CN(c2ccc(C#N)c3ncccc23)C[C@@H]2c3ccc(N4C[C@@H](N)[C@H](O)C4)cc3CN12 (single isomer, unassigned) [Example 40B]
5.8	C[C@@H]1CN(c2ccc(C#N)c3ncccc23)C[C@@H]2c3ccc(N4CCNCC(O)C4)cc3CN12 (stereo partly drawn) [Example 15, 5-[(4R,10bS)-8-(6-hydroxy-1,4-diazepan-1-yl)-4-methyl-3,4,6,10b-tetrahydro-1H-pyrazino[2,1-a]isoindol-2-yl]quinoline-8-carbonitrile]
< 3.2	C[C@@H]1CN(c2ccc(C#N)c3ncccc23)C[C@@H]2c3ccc(C4CNC4)cc3CN12 [Example 29, 5-[(4R,10bS)-8-(azetidin-3-yl)-4-methyl-3,4,6,10b-tetrahydro-1H-pyrazino[2,1-a]isoindol-2-yl]quinoline-8-carbonitrile]
7.4	CO[C@@H]1CNC[C@H]1Nc1ccc2c(c1)CN1[C@H](C)CN(c3ccc(C#N)c4ncccc34)C[C@H]21 [Example 34, 5-[(4R,10bS)-8-[[(3R,4R)-4-methoxypyrrolidin-3-yl]amino]-4-methyl-3,4,6,10b-tetrahydro-1H-pyrazino[2,1-a]isoindol-2-yl]quinoline-8-carbonitrile]
